Source: ChEMBL document CHEMBL4706474, “Tetrahydro-2-naphthyl and 2-Indanyl Triazolopyrimidines Targeting Plasmodium falciparum Dihydroorotate Dehydrogenase Display Potent and Selective Antimalarial Activity” (J Med Chem, 2016)
≈ marks a conversion by molar mass, not a printed value.

Assays:
[1] = Protein binding in Swiss mouse plasma at 20 mg/kg, po administered as single dose via gavage measured over 24 hrs by LC-MS analysis; assay type: ADME, organism-based; details: read-out: PPB (converted)
[2] = Cmax in Sprague-Dawley rat at 24.4 mg/kg, po measured over 24 hrs by LC-MS analysis; assay type: ADME, organism-based; parameters: route oral, dose 24.4 mg/kg, time >24; details: in vivo
[3] = Protein binding in human plasma assessed as bound fraction by LC-MS analysis based ultracentrifugation assay; assay type: ADME, cell-free; details: read-out: PPB (converted)
[4] = AUC (0 to infinity) in Sprague-Dawley rat at 24.4 mg/kg, po measured over 24 hrs by LC-MS analysis; assay type: ADME, organism-based; parameters: route oral, dose 24.4 mg/kg, time >24; details: in vivo
[5] = Intrinsic clearance in mouse liver microsomes at 1 uM by LC-MS analysis; assay type: ADME, Microsome
[6] = Oral bioavailability in Sprague-Dawley rat at 24.4 mg/kg measured over 24 hrs by LC-MS analysis; assay type: ADME, organism-based; details: in vivo
[7] = Unbound Cmax in Swiss mouse at 20 mg/kg, po administered as single dose via gavage measured over 24 hrs by LC-MS analysis; assay type: ADME, organism-based; details: in vivo
[8] = Protein binding in mouse plasma assessed as bound fraction by LC-MS analysis based ultracentrifugation assay; assay type: ADME, cell-free; details: read-out: PPB (converted)
[9] = Unbound AUC (0 to infinity) in Sprague-Dawley rat at 24.4 mg/kg, po measured over 24 hrs by LC-MS analysis; assay type: ADME, organism-based; details: in vivo
[10] = Solubility of compound in FaSSIF at pH 6.5 measured after 5 to 6 hrs by HPLC-UV based analysis
[11] = Protein binding in rat plasma assessed as bound fraction by LC-MS analysis based ultracentrifugation assay; assay type: ADME, cell-free; details: read-out: PPB (converted)
[12] = Protein binding in Sprague-Dawley rat plasma at 2 mg/kg, iv administered as infusion for 10 mins by LC-MS analysis; assay type: ADME, organism-based; details: read-out: PPB (converted)
[13] = Apparent half-life in Sprague-Dawley rat at 2 mg/kg, iv administered as infusion for 10 mins by LC-MS analysis; assay type: ADME, organism-based; details: in vivo, read-out: t1/2(app) (converted)
[14] = Lipophilicity, logD of the compound at pH 7.4; assay type: physicochemical; details: buffer
[15] = Tmax in Swiss mouse at 20 mg/kg, po administered as single dose via gavage measured over 24 hrs by LC-MS analysis; assay type: ADME, organism-based; details: in vivo
[16] = Unbound AUC (0 to infinity) in Swiss mouse at 20 mg/kg, po administered as single dose via gavage measured over 24 hrs by LC-MS analysis; assay type: ADME, organism-based; details: in vivo
[17] = Solubility of compound in FeSSIF at pH 5.8 measured after 5 to 6 hrs by HPLC-UV based analysis; assay type: physicochemical; details: simulated gi fluid, time 5-6 hrs
[18] = Volume of distribution at steady state in Sprague-Dawley rat at 2 mg/kg, iv administered as infusion for 10 mins by LC-MS analysis; assay type: ADME, organism-based; details: in vivo
[19] = Apparent half-life in Swiss mouse at 20 mg/kg, po administered as single dose via gavage measured over 24 hrs by LC-MS analysis; assay type: ADME, organism-based; details: in vivo
[20] = Elimination half-life in Swiss mouse at 20 mg/kg, po administered as single dose via gavage measured over 24 hrs by LC-MS analysis; assay type: ADME, organism-based; details: in vivo, read-out: beta t1/2 (converted)
[21] = Inhibition of N-terminal His6-tagged Plasmodium falciparum DHODH expressed in Escherichia coli BL21 using L-DHO as substrate and CoQ as co-substrate by DCIP dye based spectrophotometric assay
in vivo [22] = details: Sprague-Dawley, rat, po, 24.4 mg/kg
[23] = Intrinsic clearance in rat liver microsomes assessed per mg protein at 1 uM by LC-MS analysis; assay type: ADME, Microsome; details: microsomes, 1 µM
[24] = AUC (0 to infinity) in Swiss mouse at 20 mg/kg, po administered as single dose via gavage measured over 24 hrs by LC-MS analysis; assay type: ADME, organism-based; parameters: route oral, dose 20 mg/kg, time >24; details: in vivo
Cytochrome P450 3A4 = Cytochrome P450 3A4 (Homo sapiens, UniProt P08684); test: Inhibition of CYP3A4 in human liver microsomes using isoform-specific probe substrates in presence of NADPH-generating system by LC-MS analysis; assay type: ADME
[25] = Solubility of compound in 0.1 N HCl measured after 5 to 6 hrs by HPLC-UV based analysis; assay type: physicochemical; details: buffer; time 5-6 hrs
[26] = Cmax in Swiss mouse at 20 mg/kg, po administered as single dose via gavage measured over 24 hrs by LC-MS analysis; assay type: ADME, organism-based; parameters: route oral, dose 20 mg/kg, time >24; details: in vivo
[27] = Inhibition of N-terminal His6-tagged dog DHODH expressed in Escherichia coli BL21 using L-DHO as substrate and CoQ as co-substrate by DCIP dye based spectrophotometric assay; parameters: species or system Canis lupus familiaris
[28] = Unbound Cmax in Sprague-Dawley rat at 24.4 mg/kg, po measured over 24 hrs by LC-MS analysis; assay type: ADME, organism-based; details: in vivo
[29] = Unbound clearance in Sprague-Dawley rat at 2 mg/kg, iv administered as infusion for 10 mins by LC-MS analysis; assay type: ADME, organism-based; details: in vivo
[30] = Unbound AUC (0 to infinity) in Sprague-Dawley rat at 2 mg/kg, iv by LC-MS analysis; assay type: ADME, organism-based; details: in vivo
[31] = Inhibition of N-terminal His6-tagged Plasmodium vivax DHODH expressed in Escherichia coli BL21 using L-DHO as substrate and CoQ as co-substrate by DCIP dye based spectrophotometric assay
[32] = AUC (0 to infinity) in Sprague-Dawley rat at 2 mg/kg, iv administered as infusion for 10 mins by LC-MS analysis; assay type: ADME, organism-based; parameters: route intravenous, dose 2 mg/kg, time 10 min; details: in vivo
[33] = Unbound volume of distribution at steady state in Sprague-Dawley rat at 2 mg/kg, iv administered as infusion for 10 mins by LC-MS analysis; assay type: ADME, organism-based; details: in vivo
Plasmodium falciparum [34] = test: Antiplasmodial activity against Plasmodium falciparum 3D7 infected in RBC assessed as reduction in parasitemia incubated for 72 hrs by SYBR green dye-based assay; assay type: functional, organism-based; details: rbc
[35] = Kinetic solubility of compound in phosphate buffer at pH 6.5 measured after 30 mins by HPLC-UV based analysis; assay type: physicochemical; details: phosphate buffer, pH 6.5, read-out: Kinetic_solubility
[36] = AUC (0 to infinity) in Sprague-Dawley rat at 18.2 mg/kg, po measured over 24 hrs by LC-MS analysis; assay type: ADME, organism-based; parameters: route oral, dose 18.2 mg/kg, time >24; details: in vivo
[37] = Protein binding in Sprague-Dawley rat plasma at 1.9 mg/kg, iv administered as infusion for 10 mins by LC-MS analysis; assay type: ADME, organism-based; details: read-out: PPB (converted)
[38] = Unbound clearance in Sprague-Dawley rat at 1.9 mg/kg, iv administered as infusion for 10 mins by LC-MS analysis; assay type: ADME, organism-based; details: in vivo
[39] = Unbound AUC (0 to infinity) in Sprague-Dawley rat at 18.2 mg/kg, po measured over 24 hrs by LC-MS analysis; assay type: ADME, organism-based; details: in vivo
Plasmodium falciparum [40] = test: Antiplasmodial activity against Plasmodium falciparum 3D7 infected in po dosed NSG mouse assessed as reduction in parasitemia administered once daily for 4 consecutive days starting from day 3 post-infection and measured 24 hrs post last dose by flow cytometric analysis; assay type: functional; details: 3D7, po, 96 h, time 4 day
[41] = Unbound Cmax in Sprague-Dawley rat at 18.2 mg/kg, po measured over 24 hrs by LC-MS analysis; assay type: ADME, organism-based; details: in vivo
[42] = Solubility of compound in FeSSIF at pH 5 measured after 5 to 6 hrs by HPLC-UV based analysis; assay type: physicochemical; details: simulated gi fluid, time 5-6 hrs
[43] = Oral bioavailability in Sprague-Dawley rat at 18.2 mg/kg measured over 24 hrs by LC-MS analysis; assay type: ADME, organism-based; details: in vivo
Cytochrome P450 2C19 = Cytochrome P450 2C19 (Homo sapiens, UniProt P33261); test: Inhibition of CYP2C19 in human liver microsomes using isoform-specific probe substrates in presence of NADPH-generating system by LC-MS analysis; assay type: ADME
[44] = Unbound AUC (0 to infinity) in Sprague-Dawley rat at 1.9 mg/kg, iv by LC-MS analysis; assay type: ADME, organism-based; details: in vivo
[45] = Unbound volume of distribution at steady state in Sprague-Dawley rat at 1.9 mg/kg, iv administered as infusion for 10 mins by LC-MS analysis; assay type: ADME, organism-based; details: in vivo
in vivo [46] = details: Sprague-Dawley, rat, po, 18.2 mg/kg
[47] = Cmax in Sprague-Dawley rat at 18.2 mg/kg, po measured over 24 hrs by LC-MS analysis; assay type: ADME, organism-based; parameters: route oral, dose 18.2 mg/kg, time >24; details: in vivo
[48] = Volume of distribution at steady state in Sprague-Dawley rat at 1.9 mg/kg, iv administered as infusion for 10 mins by LC-MS analysis; assay type: ADME, organism-based; details: in vivo
[49] = Intrinsic clearance in human pooled liver microsomes assessed per mg protein at 1 uM by LC-MS analysis; assay type: ADME, Microsome; details: microsomes, 1 µM
[50] = AUC (0 to infinity) in Sprague-Dawley rat at 1.9 mg/kg, iv administered as infusion for 10 mins by LC-MS analysis; assay type: ADME, organism-based; parameters: route intravenous, dose 1.9 mg/kg, time 10 min; details: in vivo
[51] = Apparent half-life in Sprague-Dawley rat at 1.9 mg/kg, iv administered as infusion for 10 mins by LC-MS analysis; assay type: ADME, organism-based; details: in vivo, read-out: t1/2(app) (converted)

Sequence of Cytochrome P450 2C19 (P33261 whole entry, canonical isoform): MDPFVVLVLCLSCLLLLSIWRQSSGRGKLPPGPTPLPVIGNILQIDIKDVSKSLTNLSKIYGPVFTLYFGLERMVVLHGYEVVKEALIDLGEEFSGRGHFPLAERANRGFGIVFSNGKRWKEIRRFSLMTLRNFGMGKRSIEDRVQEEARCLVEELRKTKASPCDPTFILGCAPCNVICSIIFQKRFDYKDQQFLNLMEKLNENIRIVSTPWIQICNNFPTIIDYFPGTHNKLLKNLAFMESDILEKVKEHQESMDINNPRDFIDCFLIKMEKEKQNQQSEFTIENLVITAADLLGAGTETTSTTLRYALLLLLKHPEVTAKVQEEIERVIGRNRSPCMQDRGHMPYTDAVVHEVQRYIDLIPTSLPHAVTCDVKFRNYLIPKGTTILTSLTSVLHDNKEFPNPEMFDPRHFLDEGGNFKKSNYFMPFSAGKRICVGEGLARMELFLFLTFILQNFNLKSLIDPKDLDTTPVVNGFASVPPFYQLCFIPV
Sequence of Cytochrome P450 3A4 (P08684 whole entry, canonical isoform): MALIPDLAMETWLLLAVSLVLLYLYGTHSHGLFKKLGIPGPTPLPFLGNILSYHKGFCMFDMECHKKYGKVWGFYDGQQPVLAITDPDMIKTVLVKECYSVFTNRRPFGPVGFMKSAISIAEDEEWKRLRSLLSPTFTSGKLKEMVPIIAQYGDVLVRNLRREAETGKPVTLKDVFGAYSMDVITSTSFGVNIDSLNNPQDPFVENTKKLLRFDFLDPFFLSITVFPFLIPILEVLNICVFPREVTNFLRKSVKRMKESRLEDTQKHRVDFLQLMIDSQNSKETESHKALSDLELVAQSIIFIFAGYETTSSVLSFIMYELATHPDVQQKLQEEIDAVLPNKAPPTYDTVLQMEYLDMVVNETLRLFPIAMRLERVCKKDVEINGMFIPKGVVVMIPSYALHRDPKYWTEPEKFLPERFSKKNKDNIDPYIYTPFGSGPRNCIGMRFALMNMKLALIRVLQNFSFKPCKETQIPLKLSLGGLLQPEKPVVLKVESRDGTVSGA

Structure (SMILES) | fraction unbound at 24 h [1] | fraction unbound [3] | intrinsic clearance [5] | fCmax [7] | solubility [10] | fraction unbound [11] | logD [14] | Tmax [15] | fAUC [16] | t1/2(app) [19] | half-life [20] | IC50 [21] | Intrinsic clearance in rat liver microsomes (uL/min/mg protein) [23] | AUC [24] | Cmax [26] | IC50 [27] | IC50 [31] | EC50 (Plasmodium falciparum [34]) | solubility kinetic at 0.5 h [35] | also measured
Cc1cc(NC2CCc3cc(Br)ccc3C2)n2nc(C(C)(F)F)nc2n1 (stereo in doubt) | 0.008 | 0.01 | 26 µL/min | 0.07 µM | 13 µg/mL (≈ 30.8 µM) | 0.003 | 4 | 1 h | 0.41 µM·h | 2.1 h | 2 h | 4.6 nM | 11 µL/min | 51 µM·h | 8.6 µM | > 100000 nM | 24 nM | 2.6 nM | 3.1 µg/mL (≈ 7.34 µM) | Cmax [2]: 37 µM; AUC(0-inf) [4]: 318 µM·h; bioavailability [6]: 86%; fraction unbound [8]: 0.008; fAUC [9]: 0.95 µM·h; fraction unbound at 10 min [12]: 0.003; half-life [13]: 6.2 h; solubility [17]: 211 µg/mL (≈ 500 µM); Vdss [18]: 1.1 L/kg; Tmax at 24 h (in vivo [22]): 2.5 h; IC50 (Cytochrome P450 3A4): > 20000 nM; solubility [25]: 189 µg/mL (≈ 448 µM); fCmax [28]: 0.11 µM; CL free [29]: 933 mL/min/kg; fAUC [30]: 0.09 µM·h; AUC(0-inf) [32]: 30 µM·h; fVdss [33]: 367 L/kg
Cc1cc(NC2CCc3cc(Cl)ccc3C2)n2nc(C(C)(F)F)nc2n1 (stereo in doubt) | 0.008 | 0.012 | 44 µL/min | 0.06 µM | 47 µg/mL (≈ 124 µM) | 0.008 | 3.9 | 1 h | 0.16 µM·h | 1.9 h | 2 h | 3.7 nM | 33 µL/min | 19.7 µM·h | 7 µM | > 100000 nM | 29 nM | 3.8 nM | 3.1 µg/mL (≈ 8.2 µM) | AUC(0-inf) [36]: 227 µM·h; fraction unbound at 10 min [37]: 0.008; CL free [38]: 438 mL/min/kg; fAUC [39]: 1.82 µM·h; ED90 (Plasmodium falciparum [40]): > 30 mg/kg; fCmax [41]: 0.19 µM; solubility [42]: 211 µg/mL (≈ 558 µM); bioavailability [43]: 100%; IC50 (Cytochrome P450 2C19): > 20000 nM; fAUC [44]: 0.19 µM·h; fVdss [45]: 188 L/kg; Tmax at 24 h (in vivo [46]): 4 h; Cmax [47]: 23.8 µM; Vdss [48]: 1.5 L/kg; microsomal intrinsic clearance [49]: < 7 µL/min; AUC(0-inf) [50]: 24 µM·h; half-life [51]: 7.1 h
